# Data as given in US12385839B2, “Use of protein in predicting drug properties” (priority 2021, dated 2025).
# Where “and” joins values, the source holds several entries; their conditions need not be identical. Equal values may be shown once.
# Legend:
# [1] = biological target: T1, human serum albumin (HSA) (Homo sapiens, UniProt P02768); test: Fluorescence emission spectrum (quenching) of HSA with carbamate pesticides; type: binding; conditions: for Ka (binding constant) / Kq / Ksv / n (number of binding sites) / Kd: pH 7.4; for R (binding distance): Förster energy transfer; for fluorescence of HSA quenched by pesticide: titration of pesticide; for ΔH^0 / ΔS^0: Van't Hoff, 296-310 K; for Kd: Ka (binding constant)
# T1 sequence (P02768 25-609): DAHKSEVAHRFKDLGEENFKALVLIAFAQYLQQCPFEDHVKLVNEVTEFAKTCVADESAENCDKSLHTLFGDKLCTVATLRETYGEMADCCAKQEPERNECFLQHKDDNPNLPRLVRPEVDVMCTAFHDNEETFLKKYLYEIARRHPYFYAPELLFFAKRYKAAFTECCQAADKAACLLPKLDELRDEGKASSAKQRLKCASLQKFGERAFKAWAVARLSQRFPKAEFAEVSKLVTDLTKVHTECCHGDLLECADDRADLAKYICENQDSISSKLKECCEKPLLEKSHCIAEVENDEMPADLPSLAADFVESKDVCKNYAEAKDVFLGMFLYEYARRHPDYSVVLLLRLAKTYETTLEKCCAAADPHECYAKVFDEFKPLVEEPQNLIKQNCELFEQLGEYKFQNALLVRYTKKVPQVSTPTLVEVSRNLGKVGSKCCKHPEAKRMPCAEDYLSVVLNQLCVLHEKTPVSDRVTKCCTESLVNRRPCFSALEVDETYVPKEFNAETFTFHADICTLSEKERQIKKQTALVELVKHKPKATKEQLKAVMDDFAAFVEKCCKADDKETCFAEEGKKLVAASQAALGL
# In short: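 Fluorescence quenching of HSA by carbamate pesticides was measured. HSA was held at 5×10^−7 M and pesticide was titrated from (0-105)×10^−7 M. Samples were preheated for 3 minutes, excited at 280 nm with 15 nm slits, and emission was recorded from 300-500 nm. Inner-filter effects were corrected. Binding site number n came from log[(F0−F)/F]=log Ka+nlog[Q].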
# [2] = biological target: T1, human serum albumin (HSA); test: Circular dichroism spectrum, secondary structure (α-helix content) of HSA; conditions: HSA 2×10^−6 M
# In short: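 CD spectra of HSA held at 2×10^−6 M with pesticide at (0-20)×10^−6 M, 1 mm path, after 2–5 min preheating. α-Helix content derived from mean residue ellipticity at 208 nm (585 residues).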
# [3] = cited from earlier work; for Toxicity: toxicity grade by LD50, trailing figure = number of pesticides in group
smiles,measurement,setting,value
"CNC(=O)O/N=C(\CS(C)(=O)=O)C(C)(C)C [Thiofanox-sulfone, thiofanox sulfone]",Ksv (37°),"[1]; 37°, modelling table",55736.87796 and 53392.17364
same,ΔG^0,[1]; 296 K,-4.3031 kcal/mol
same,Ka (binding constant),[1]; 296 K,(1.559 ± 0.162) × 10^3 M^−1
same,Kq,[1]; 296 K,3.906 ± 0.043 10^12 M^−1s^−1
same,Ksv,[1]; 296 K,3.906 ± 0.043 10^4 M^−1
same,n (number of binding sites),[1]; 296 K,0.719 ± 0.011
same,ΔG^0,[1]; 303 K,-4.9596 kcal/mol
same,Ka (binding constant),[1]; 303 K,(3.514 ± 0.247) × 10^3 M^−1
same,Kq,[1]; 303 K,4.102 ± 0.034 10^12 M^−1s^−1
same,Ksv,[1]; 303 K,4.102 ± 0.034 10^4 M^−1
same,n (number of binding sites),[1]; 303 K,0.786 ± 0.008
same,ΔG^0,[1]; 310 K,-5.6159 kcal/mol
same,R (binding distance),[1]; 310 K,2.907 nm
same,Ka (binding constant),[1]; 310 K,(9.450 ± 0.597) × 10^3 M^−1
same,Kq,[1]; 310 K,5.574 ± 0.138 10^12 M^−1s^−1
same,Ksv,[1]; 310 K,5.574 ± 0.138 10^4 M^−1
same,n (number of binding sites),[1]; 310 K,0.848 ± 0.004
same,fluorescence of HSA quenched by pesticide,[1]; 310 K,quenched
same,ΔH^0,[1],23.451 kcal/mol
same,ΔS^0,[1],392.314 J · mol^−1 · K^−1
same,Number of binding sites/n,[1]; modelling table,0.8476 and 0.7456
same,α-helix contents,[2]; 5:1 (Pesticide:HSA),51.076%
same,α-helix contents,[2]; 10:1 (Pesticide:HSA),50.482%
same,Toxicity,[3],Highly
"CNC(=O)Oc1cc(C)cc(C(C)C)c1 [Promecarb, promecarb]",Ksv (37°),"[1]; 37°, modelling table",58172.07681
same,ΔG(37°),"[1]; 37°, modelling table",−21.38
same,ΔG^0,[1]; 296 K,-3.5213 kcal/mol
same,Kq,[1]; 296 K,2.409 ± 0.154 10^12 M^−1s^−1
same,Ksv,[1]; 296 K,2.409 ± 0.154 10^4 M^−1
same,n (number of binding sites),[1]; 296 K,0.645 ± 0.004
same,ΔG^0,[1]; 303 K,-4.316 kcal/mol
same,Kq,[1]; 303 K,3.705 ± 0.060 10^12 M^−1s^−1
same,Ksv,[1]; 303 K,3.705 ± 0.060 10^4 M^−1
same,n (number of binding sites),[1]; 303 K,0.704 ± 0.008
same,ΔG^0,[1]; 310 K,-5.1107 kcal/mol
same,R (binding distance),[1]; 310 K,2.316 nm
same,Kq,[1]; 310 K,5.817 ± 0.219 10^12 M^−1s^−1
same,Ksv,[1]; 310 K,5.817 ± 0.219 10^4 M^−1
same,n (number of binding sites),[1]; 310 K,0.769 ± 0.009
same,fluorescence of HSA quenched by pesticide,[1]; 310 K,quenched
same,Kd,[1]; 296 K,2430 µM
same,Kd,[1]; 303 K,822 µM
same,Kd,[1]; 310 K,241 µM
same,ΔH^0,[1],30.0872 kcal/mol
same,ΔS^0,[1],475.061 J · mol^−1 · K^−1
same,Binding distance/r,[1]; modelling table,2.316
same,Number of binding sites/n,[1]; modelling table,0.7688
same,α-helix contents,[2]; 5:1 (Pesticide:HSA),48.610%
same,α-helix contents,[2]; 10:1 (Pesticide:HSA),48.538%
same,LD50,[3]; modelling table,35 mg/kg
same,Toxicity,[3],Highly
